Assay results taken from US12227495B2, “Herbicidal compounds” (SYNGENTA CROP PROTECTION AG, priority 2018, dated 2025).

Key:
Assay type in all cases: in vivo
[1] = test system: Ipomoea hederacea (IPOHE); test: Post-emergence herbicide test, glasshouse, percentage damage; conditions: 1000 g/ha, evaluated after 13 days
Procedure, shortened: (§1)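 Seeds sown in pots; cultured 1 day (pre-emergence) or 8 days (post-emergence) in a controlled glasshouse; then sprayed with the active in acetone/water 50:50 plus 0.5% Tween 20 at 500 g/ha unless noted; grown on 13 days; damage assessed and banded into five classes.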

Lolium perenne (LOLPE) [2] = test: as above; conditions: 1000 g/ha, evaluated after 13 days
Procedure, shortened: as §1

[3] = test system: Amaranthus retoflexus (AMARE); test: as above; conditions: 1000 g/ha, evaluated after 13 days
Procedure, shortened: as §1

Solanum nigrum (SOLNI) [4] = test: as above; conditions: 1000 g/ha, evaluated after 13 days
Procedure, shortened: as §1

[5] = test system: Echinochloa crus-galli (ECHCG); test: as above; conditions: 1000 g/ha, evaluated after 13 days
Procedure, shortened: as §1

Setaria faberi (SETFA) [6] = test: as above; conditions: 1000 g/ha, evaluated after 13 days
Procedure, shortened: as §1

[7] = test system: Ipomoea hederacea (IPOHE); test: Pre-emergence herbicide test, glasshouse, percentage damage; conditions: rate 1000 g/ha, evaluated after 13 days
Procedure, shortened: as §1

Lolium perenne (LOLPE) [8] = test: as above; conditions: rate 1000 g/ha, evaluated after 13 days
Procedure, shortened: as §1

[9] = test system: Amaranthus retoflexus (AMARE); test: as above; conditions: rate 1000 g/ha, evaluated after 13 days
Procedure, shortened: as §1

Solanum nigrum (SOLNI) [10] = test: as above; conditions: rate 1000 g/ha, evaluated after 13 days
Procedure, shortened: as §1

[11] = test system: Echinochloa crus-galli (ECHCG); test: as above; conditions: rate 1000 g/ha, evaluated after 13 days
Procedure, shortened: as §1

Setaria faberi (SETFA) [12] = test: as above; conditions: rate 1000 g/ha, evaluated after 13 days
Procedure, shortened: as §1

| SMILES | percentage damage caused to the plant, IPOHE [1] | percentage damage caused to the plant, LOLPE (Lolium perenne (LOLPE) [2]) | percentage damage caused to the plant, AMARE [3] | percentage damage caused to the plant, SOLNI (Solanum nigrum (SOLNI) [4]) | percentage damage caused to the plant, ECHCG [5] | percentage damage caused to the plant, SETFA (Setaria faberi (SETFA) [6]) | Pre-emergence Test IPOHE percentage damage (five point scale) [7] | Pre-emergence Test LOLPE percentage damage (five point scale) (Lolium perenne (LOLPE) [8]) | Pre-emergence Test AMARE percentage damage (five point scale) [9] | Pre-emergence Test SOLNI percentage damage (five point scale) (Solanum nigrum (SOLNI) [10]) | Pre-emergence Test ECHCG percentage damage (five point scale) [11] | Pre-emergence Test SETFA percentage damage (five point scale) (Setaria faberi (SETFA) [12]) |
| --- | --- | --- | --- | --- | --- | --- | --- | --- | --- | --- | --- | --- |
| Fc1cc(Cl)cnc1Oc1cccc(Cl)c1-n1cc(C(F)(F)F)cn1 [Compound A159] | 4 (4=61-80%) | 4 (4=61-80%) | 5 (5=81-100%) | 5 (5=81-100%) | 3 (3=41-60%) | 5 (5=81-100%) | 2 (2=21-40%) | 5 (5=81-100%) | 5 (5=81-100%) | 5 (5=81-100%) | 5 (5=81-100%) | 5 (5=81-100%) |
| N#Cc1cccc(Oc2ncc(F)cc2F)c1-c1cc(C(F)F)no1 [Compound A160] | 5 (5=81-100%) | 5 (5=81-100%) | 5 (5=81-100%) | 5 (5=81-100%) | 5 (5=81-100%) | 5 (5=81-100%) | 5 (5=81-100%) | 5 (5=81-100%) | 5 (5=81-100%) | 4 (4=61-80%) | 5 (5=81-100%) | 5 (5=81-100%) |
| N#Cc1cccc(Oc2ccc(Cl)cn2)c1-c1cc(C(F)F)no1 [Compound A161] | 5 (5=81-100%) | 5 (5=81-100%) | 5 (5=81-100%) | 5 (5=81-100%) | 5 (5=81-100%) | 5 (5=81-100%) | 5 (5=81-100%) | 5 (5=81-100%) | 5 (5=81-100%) | 4 (4=61-80%) | 5 (5=81-100%) | 5 (5=81-100%) |
| N#Cc1cccc(Oc2ncc(Cl)cc2F)c1-c1cc(C(F)F)no1 [Compound A162] | 5 (5=81-100%) | 5 (5=81-100%) | 5 (5=81-100%) | 5 (5=81-100%) | 4 (4=61-80%) | 5 (5=81-100%) | 5 (5=81-100%) | 5 (5=81-100%) | 5 (5=81-100%) | 4 (4=61-80%) | 5 (5=81-100%) | 5 (5=81-100%) |
